A short description of data set [1]: Ratio of drug uptake in C57BL6/JRj mouse brain to plasma at 10 mg/kg, po administered as single dose and measured after 2 hrs by LS-MS analysis. It counts as ADME, organism-based.
Data set [2] can be described thus: Drug uptake in C57BL6/JRj mouse liver at 10 mg/kg, po administered as single dose and measured after 2 hrs by LS-MS analysis. It counts as ADME, organism-based. Particulars: in vivo; call rule not given here.
A short description of data set [3]: Aqueous solubility of the compound in distilled water after 24 hrs by HPLC analysis. It counts as physicochemical. The conditions noted are these: for solubility: buffer, 24 h; for solubility at 24 h: distilled water.
A short description of data set [4]: Drug uptake in C57BL6/JRj mouse brain at 10 mg/kg, po administered as single dose and measured after 2 hrs by LS-MS analysis. The format is ADME, organism-based. Particulars: read-out: Drug uptake.
Data set [5] in a line: Drug uptake in C57BL6/JRj mouse plasma at 10 mg/kg, po administered as single dose and measured after 2 hrs by LS-MS analysis. The format is ADME, organism-based. Particulars: in vivo.
Data set [6] is described as follows: Metabolic stability in Sprague-Dawley rat liver microsomes assessed as remaining parent compound level at 10 uM preincubated for 5 mins with NADPH generating system followed by liver microsomes addition and measured after 60 mins by HPLC analysis. It counts as ADME, Microsome. The conditions noted are these: read-out: Stability. On the technique in general: Liver microsomes are vesicles of endoplasmic reticulum, rich in cytochrome P450 enzymes.

Data set [7] is described as follows: Half life in C57BL6/JRj mouse at 10 mg/kg, po administered as single dose and measured after 2 hrs by LS-MS analysis. The format is ADME, organism-based. Particulars: in vivo.
The nature of data set [8]: Log D, lipophilicity of the compound by HPLC analysis. It counts as physicochemical.

Values after ≈ are worked out from the molar mass of the structure shown. Bounds are passed on as bounds.

The solubility is how much of the substance goes into solution per volume. A low value points to a poorly soluble substance. By half-life is commonly meant how long it takes for the measured level to halve. Lower therefore signals rapid decline. Regarding `CN(c1cc(C(F)(F)F)nc(OCCC(=O)O)n1)c1cccc2c1CCC2`, in data set [1], the BPR is listed as 1.5%. Besides, the Drug uptake entry in data set [2] and in data set [5] was “Active” in each case. Also, in data set [3], the solubility result was “Soluble”. In data set [4], the concentration at 2 h is 275 ng/g. In data set [6], the remaining at 1 h, 10 µM was more than 50%. Further, in data set [7], the half-life is 252 min.
For the compound `O=C(O)CSc1nc(Cl)cc(Nc2cccc3c2CCCC3)n1`, the solubility entry in data set [3] is reported as “Soluble”. The remaining at 1 h, 10 µM in data set [6] is more than 50%.
Take `CCCCC(Sc1nc(Cl)cc(Nc2cccc(C)c2C)n1)C(=O)O` (stereo not given): in data set [6], the remaining at 1 h, 10 µM is more than 50%.
The logD is the decadic logarithm of the distribution of all forms, ionised or not, between an organic phase and buffer at a given pH. Read a low logD as lower lipophilicity. For the compound `C=C(c1ccc(C(=O)O)cc1)c1cc2c(cc1C)C(C)(C)CCC2(C)C` [BEXAROTENE], the concentration in solution in data set [3] (solubility at 24 h) was 0.3 µg/mL (≈ 0.861 µM). Moreover, the logD in data set [8] is 4.74.
As to `Cc1cccc(Nc2cc(Cl)nc(SCC(=O)O)n2)c1C` [PIRINIXIC ACID], in data set [3], the solubility at 24 h is 48.6 µg/mL (≈ 150 µM). The compound also registered a logD in data set [8] of 1.63. Also, in data set [6], the remaining at 1 h, 10 µM was more than 50%.

Source of the values: ChEMBL document CHEMBL4411340, “Tuning Nuclear Receptor Selectivity of Wy14,643 towards Selective Retinoid X Receptor Modulation” (J Med Chem, 2019).
